Measured values from patent US8039644B2, “Hydrogenated benzo (C) thiophene derivatives as immunomodulators” (Actelion Pharmaceuticals Ltd., priority 2005, dated 2011).

molecular target: recombinant human S1P1 receptor (Homo sapiens, UniProt P21453); assay: GTPγS assay to determine EC50 values; format: biochemical; settings: GTPγS binding, membrane preparations of CHO cells expressing recombinant human S1P1 receptor
Method: GTPγS Assay to Determine EC50 Values
GTPγS binding assays are performed in 96 well microtiter plates (Nunc, 442587) in a final volume of 200 μl, using membrane preparations of CHO cells expressing recombinant human S1P1 receptor. Assay conditions are 20 mM Hepes (Fluka, 54461), 100 mM NaCl (Fluka, 71378), 5 mM MgCl2 (Fluka, 63064), 0.1% BSA (Calbiochem, 126609), 1 μM GDP (Sigma, G-7127), 2.5% DMSO (Fluka, 41644), 50 pM ^35S-GTPγS (Amersham Biosciences, SJ1320). The pH is 7.4. Test compounds are dissolved and diluted in 100% DMSO and pre-incubated at room temperature for 30 min in 150 μl of the above assay buffer, in the absence of ^35S-GTPγS. After addition of 50 μl of ^35S-GTPγS, the assay is incubated for 1 h at rt. The assay is terminated by transfer of the reaction mixture to a Multiscreen plate (Millipore, MAHFC1H60) using a cell harvester from Packard Biosciences, and the plates are washed with ice-cold 10 mM Na2HPO4/NaH2PO4 (70%/30%), dried, sealed at the bottom and, after addition of 25 μl MicroScint20 (Packard Biosciences, order#6013621), sealed on the top. Membrane-bound ^35S-GTPγS is measured with a TopCount from Packard Biosciences.
EC50 is the concentration of agonist inducing 50% of the maximal specific ^35S-GTPγS binding. Specific binding is determined by subtracting non-specific binding from maximal binding. Maximal binding is the amount of cpm bound to the Multiscreen plate in the presence of 10 μM of S1P. Non-specific binding is the amount of binding in the absence of an agonist in the assay.
The EC50 values were determined according to the method described above.

Sequence of recombinant human S1P1 receptor (P21453 whole entry): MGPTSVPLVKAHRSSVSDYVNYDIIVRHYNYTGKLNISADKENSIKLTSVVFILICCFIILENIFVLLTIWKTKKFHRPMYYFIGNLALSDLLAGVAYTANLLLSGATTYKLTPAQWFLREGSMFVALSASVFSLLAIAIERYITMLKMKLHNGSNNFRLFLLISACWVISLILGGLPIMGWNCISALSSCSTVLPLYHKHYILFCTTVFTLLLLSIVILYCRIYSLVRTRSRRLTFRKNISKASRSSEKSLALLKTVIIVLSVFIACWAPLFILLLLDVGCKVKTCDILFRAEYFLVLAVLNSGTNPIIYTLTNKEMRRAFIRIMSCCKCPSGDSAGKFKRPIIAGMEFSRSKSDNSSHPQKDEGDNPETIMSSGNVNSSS

Row | Compound | EC50 [nM]
1 | Cc1cc(-c2noc(-c3scc4c3CCC(C)(C)C4)n2)cc(C)c1OCC(O)CNC(=O)CO (stereo not shown) [Example 129] | 3.8
2 | CCc1sc(C(=O)/C=C/c2cc(C)c(O)c(C)c2)c2c1CC(CC)(CC)CC2 [Example 423, 3-(4-Hydroxy-3,5-dimethyl-phenyl)-1-(3,5,5-triethyl-4,5,6,7-tetrahydro-benzo[c]thiophen-1-yl)-propenone] | 7.6
3 | COc1cc(CCC(=O)c2sc(C)c3c2CCC(C)(C)C3)cc(Cl)c1OCC(O)CNCCC(=O)O (stereo not shown) [Example 62] | 5.9
4 | Cc1cc(-c2noc(-c3scc4c3CCC3(CC3)C4)n2)cc(C)c1OCC(O)CNC(=O)CO (stereo not shown) [Example 457] | 6.2
5 | Cc1cc(CCC(=O)c2sc(C)c3c2CCC(C)(C)C3)cc(C)c1OCC(O)CNCCC(=O)O (stereo not shown) [Example 41] | 2.8
6 | CCc1sc(C(=O)CCc2cc(C)c(OCC(O)COC)c(C)c2)c2c1CC(C)(C)CC2 (stereo not shown) [Example 71] | 5.9
7 | CCc1sc(C(=O)CCc2ccc(OCCO)cc2OC)c2c1CC(C)(C)CC2 [Example 210] | 1.1
8 | CCCc1sc(C(=O)CCc2cc(C)c(OC[C@H](O)CO)c(C)c2)c2c1CC(C)(C)CC2 [Example 414] | 4.2
9 | CCc1cc(CCC(=O)c2sc(C(F)(F)F)c3c2CCC(C)(C)C3)cc(C)c1OCC(O)CNC(=O)CCO (stereo not shown) [Example 489] | 2.9
10 | COc1cc(CCC(=O)c2sc(C)c3c2CCC(C)(C)C3)cc(Cl)c1OCC(O)CNC(=O)CO (stereo not shown) [Example 149] | 5.1
11 | CCc1sc(C(=O)CCc2cc(C)c(OCC(O)CN3CC(C(=O)O)C3)c(C)c2)c2c1CC(C)(C)CC2 (stereo not shown) [Example 296] | 1
12 | CCc1sc(C(=O)CCc2cc(Cl)c(OCCNC(=O)CNC)c(OC)c2)c2c1CC(C)(C)CC2 [Example 247] | 3.1
13 | CCc1cc(CCC(=O)c2sc(CC)c3c2CCC(C)(C)C3)cc(C)c1CCCNC(=O)CCNC [Example 351] | 3.4

Further molecules by falling EC50, results first:

Row | EC50 [nM] | Compound
14 | 9.7 | Cc1cc(C)cc(NCC(=O)c2sc(C(F)(F)F)c3c2CCC(C)(C)C3)c1 [Example 517]
15 | 8 | CCc1sc(C(=O)CCc2ccc(S(=O)(=O)NCCN)cc2)c2c1CC(C)(C)CC2 [Example 356, N-(2-amino-ethyl)-4-[3-(3-ethyl-5,5-dimethyl-4,5,6,7-tetrahydro-benzo[c]thiophen-1-yl)-3-oxo-propyl]-benzenesulfonamide]
16 | 6.1 | CCc1sc(C(=O)CNc2ccccc2OC)c2c1CC(C)(C)CC2 [Example 378]
17 | 4.1 | CCc1sc(C(=O)CCc2cc(C)c(OCCNC(C)C)c(C)c2)c2c1CC(C)(C)CC2 [Example 114]
18 | 3.7 | CCc1sc(C(=O)CCc2cc(C)c(OCC(O)CNCCN)c(C)c2)c2c1CC(C)(C)CC2 (stereo not shown) [Example 79]
19 | 2.9 | CCc1sc(C(=O)CCc2ccc(OCCNS(C)(=O)=O)cc2OC)c2c1CC(C)(C)CC2 [Example 230]
20 | 2.6 | Cc1cc(CCC(=O)c2sc(C(F)(F)F)c3c2CCC(C)(C)C3)cc(C)c1NCC(O)CO (stereo not shown) [Example 501, 3-[4-(2,3-Dihydroxy-propylamino)-3,5-dimethyl-phenyl]-1-(5,5-dimethyl-3-trifluoromethyl-4,5,6,7-tetrahydro-benzo[c]thiophen-1-yl)-propan-1-one]
21 | 2.5 | CCc1sc(C(=O)CCc2cc(C)c(OCCO)c(C)c2)c2c1CC(C)(C)CC2 [Example 66]
22 | 2.4 | Cc1cc(CCC(=O)c2sc(C)c3c2CCC(C)(C)C3)cc(C)c1OC[C@@H](O)CO [Example 27]
23 | 1.8 | CCc1sc(C(=O)CCc2ccc(OCCCNS(C)(=O)=O)cc2OC)c2c1CC(C)(C)CC2 [Example 269]
24 | 1.8 | CCc1sc(C(=O)CCc2cc(C)c(OCC(O)CNC(CO)CO)c(C)c2)c2c1CC(C)(C)CC2 (stereo not shown) [Example 77]
25 | 1.8 | CCc1cc(CCC(=O)c2sc(CC)c3c2CCC(C)(C)C3)cc(C)c1CCCN [Example 339, 3-[4-(3-Amino-propyl)-3-ethyl-5-methyl-phenyl]-1-(3-ethyl-5,5-dimethyl-4,5,6,7-tetrahydro-benzo[c]thiophen-1-yl)-propan-1-one]
26 | 1.7 | CCc1sc(C(=O)CCc2cc(C)c(OCC(O)CN)c(C)c2)c2c1CC(C)(C)CC2 (stereo not shown) [Example 271]
27 | 0.8 | CCc1sc(C(=O)CCc2cc(C)c(OCC(O)CNC(=O)CN)c(Cl)c2)c2c1CC(C)(C)CC2 (stereo not shown) [Example 312]
28 | 0.6 | CCc1sc(C(=O)CCc2cc(C)c(OCC(O)CNCCC(=O)O)c(C)c2)c2c1CC(C)(C)CC2 (stereo not shown) [Example 80]
